Assay results as given in patent US20020173452A1, “Cytostatic-glycoconjugates having specifically cleavable linking units” (priority 2000, published 2002).
*1 amine or outer side, *2 acyl side, *3 side chain or, on linkers, in order; H or OH if unused. Where a SMILES comes first, the peptide text is derived from it. [ ]: non-standard residue; d: D form. The star is where a group is joined. X1 = CO[C@H]1[C@@H](O)[C@@H](C)OC(Oc2ccc(NC(=S)*)cc2)[C@H]1O; X2 = CC[C@@]1(O*)C(=O)OCc2c1cc1n(c2=O)Cc2cc3ccccc3nc2-1; X3 = CO[C@H]1[C@@H](O)[C@@H](C)OC(Oc2ccc(N*)cc2)[C@H]1O; CO = O=C([*:1])[*:2]

Key:
[1] = test system: hemopoietic stem cells (bone marrow cells); assay: cells; type: cell-based, mice; conditions: murine bone marrow cells, recombinant murine GM-CSF, 7 days
Experimental: C. CSF-Induced Proliferation of Hemopoietic Stem Cells
Bone marrow cells are flushed out of the femur of mice. 105 cells are incubated in McCoy 5A medium (0.3% agar) together with recombinant murine GM-CSF (Genzyme; parent cell colony formation) and the substances (10^−4 to 100 μg/ml) at 37° C. and 7% CO2. 7 days later, the colonies ([…]) and clusters (17-50 cells) are counted.

[2] = test system: HT29 human large intestine cell line; assay: Growth inhibition test (MTT) for cytotoxic properties on tumour cell lines; type: cell-based; conditions: HT29 cells, growth checked after day 6, read-out: IC50 of the cytotoxic action on tumour cell lines, HT29
Experimental: (§1) A: Growth Inhibition Test for the Determination of the Cytotoxic Properties on Various Tumour Cell Lines
(§2) The human large intestine cell lines SW 480 and HT29 (ATCC No. CCL 228 and HTB38 and the mouse melanoma cell line B16F10 (CRL 6475) were grown to confluence in Roux dishes in RPMI 1640 medium with addition of 10% FCS. They were then trypsinized and taken up in RPMI plus 10% FCS to a cell count of 50,000 cells or, for B16F10, 20,000 cells per ml. 100 μl of cell suspension/well were added to a 96 microwell plate and incubated at 37° C. for 1 day in a CO2 incubator. A further 100 μl of RPMI medium and 1 μl of DMSO were then added with the test substances. The growth was checked after day 6. For this, 25 μl of MTT solution (3-(4,5-dimethylthiazol-2-yl)-2,5-diphenyltetrazolium bromide) was added to each well at a starting concentration of 5 mg/ml of H2O. The plate was incubated at 37° C. for 5 hours in a CO2 incubator. The medium was then aspirated and 100 μl of 1-propanol/well were added. After shaking with 100 μl of H2O for 30 min, the extinction was measured at 595 nm using a Multiplate Reader (BIO-RAD 3550-UV).
(§3) The cytostatic action is indicated in Table 1 as an IC50 value, in each case for the individual cell lines.

[3] = test system: SW 480 human large intestine cell line; assay: as above; type: cell-based; conditions: SW480 cells, growth checked after day 6, read-out: IC50 of the cytotoxic action on tumour cell lines, SW480
Experimental: as §1, §2, §3

[4] = test system: subcutaneously growing melanoma xenograft model (MEXF 989); assay: In-vivo inhibition of tumour growth using a nude mouse model; design: species or system athymic nude mice (NMRI nu/nu strain); conditions: for inhibition of the tumor growth (in words): subcutaneously growing melanoma xenograft MEXF 989, nude mice; for optimal T/C in % / lethality: MEXF 989 xenograft, nude mice, i.v. or i.p., day 1-3 and day 15-17; for lethality: dead/5 mice
Excerpt: B. In-Vivo Inhibition or Tumour Growth Using a Nude Mouse Model
In all in-vivo experiments for investigating the inhibition of tumour growth, athymic nude mice (NMRI nu/nu strain) were used. The tumour was developed by serial passage in nude mice. The human origin of the tumour was confirmed by isoenzymatic and immunohistochemical methods.
The tumour was implanted subcutaneously in both flanks of nu/nu nude mice 6 to 8 weeks old. The treatment was started, depending on the doubling time, as soon as the tumours had reached a diameter of 5-7 mm. The mice were assigned to the treatment group or the control group (5 mice per group having 8-10 assessable tumours) by randomization. The individual tumours of the control group all grew progressively.
The size of the tumours was measured in two dimensions by means of a slide gauge. The tumour volume, which correlated well with the cell count, was then used for all assessments. The volume was calculated according to the formula “length×breadth×breadth/2” ([a×b^2]/2, a and b represent two diameters arranged at right angles).
The values of the relative tumour volume (RTV) were calculated for each individual tumour by dividing the tumour size on day×with the tumour size on day 0 (at the time of randomization). The average values of the RTV were then used for the further assessment.
The inhibition of the increase of the tumour volume (tumour volume of the test group/control group, T/C, in percent) was the final measured value.
The compounds can be administered with a daily or an intermittent therapy schedule through a couple of days either by intraperitoneal, intravenious, oral or subcutaneous route.
The compounds are dissolved in water or in PEG400/water 2:1 and are administered intravenously or intraperitoneally from day 1-3 and day 15-17.

[5] = test system: B16F10 mouse melanoma cell line; assay: Growth inhibition test (MTT) for cytotoxic properties on tumour cell lines; type: cell-based; conditions: B16F10 cells, growth checked after day 6, read-out: IC50 of the cytotoxic action on tumour cell lines, B16F10
Experimental: as §1, §2, §3

MMP-2 = target: T1, MMP-2 (Homo sapiens, UniProt P08253); assay: Cleavage of conjugates by MMP-2 in buffer; type: biochemical; conditions: after 6 h incubation with MMP-2 in buffer pH 7.5, HPLC peak areas
T1 construct: purchased Calbiochem
T1 sequence (P08253 110-660): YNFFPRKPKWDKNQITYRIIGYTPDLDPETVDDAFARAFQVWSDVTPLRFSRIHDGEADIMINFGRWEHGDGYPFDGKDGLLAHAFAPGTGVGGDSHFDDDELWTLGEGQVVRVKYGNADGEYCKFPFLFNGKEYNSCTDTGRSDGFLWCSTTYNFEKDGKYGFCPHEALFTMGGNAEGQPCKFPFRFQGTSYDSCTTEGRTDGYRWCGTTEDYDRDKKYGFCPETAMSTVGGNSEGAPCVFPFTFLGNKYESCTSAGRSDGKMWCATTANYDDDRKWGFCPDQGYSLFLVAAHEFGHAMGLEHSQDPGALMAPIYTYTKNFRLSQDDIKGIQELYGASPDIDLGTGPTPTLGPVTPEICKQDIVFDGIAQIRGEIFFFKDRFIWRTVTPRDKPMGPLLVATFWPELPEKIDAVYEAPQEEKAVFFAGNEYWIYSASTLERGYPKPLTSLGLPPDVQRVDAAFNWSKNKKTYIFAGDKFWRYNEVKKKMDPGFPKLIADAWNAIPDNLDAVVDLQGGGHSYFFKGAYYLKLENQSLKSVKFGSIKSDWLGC
Experimental: D. Cleavage of Conjugates by MMP-2 in Buffer
2.5 μl MMP-2 (Calbiochem) with a specific activity of 60μU/μl are incubated with 10 nM of the conjugates exemplified in the example series 1-25 in 1 ml of a medium consisting of 50 mM Tris-HCl pH 7.5, 0.2 M NaCl, 10 mM CaCl2*2H2O and 0,05% Brij 35. The enzyme mediated cleavage of the conjugates is detected by HPLC analysis using an RP18 (5 μM) column with 70% HClO4 /water (0.4% v/v) as eluent A and acetonitrile as eluent B (UV detection at […]). The efficiency of the cleavage is assessed by comparing the peak areas of the intact conjugate (starting material) and the cleavage product (tripeptide conjugate of camptothecin) after 6 h and 24 h incubation (cf, Table 4).

| SMILES | IC50 ([1]; Mus musculus, Bone marrow cell, 168 h, read-out: IC50 of inhibition of colony counts of hemopoietic stem cells) | IC50 [2] | IC50 [3] | inhibition of the tumor growth (in words) [4] | IC50 [5] | optimal T/C in % ([4]; 8 mg/kg/day) | lethality ([4]; 8 mg/kg/day) | IC50 of inhibition of colony counts of hemopoietic stem cells [1] | MMP-2 mediated cleavage, peak area product/educt × 100 (MMP-2) | optimal T/C in % ([4]; 6 mg/kg/day) | lethality ([4]; 6 mg/kg/day) |
| --- | --- | --- | --- | --- | --- | --- | --- | --- | --- | --- | --- |
| CC[C@@]1(O)C(=O)OCc2c1cc1n(c2=O)Cc2cc3ccccc3nc2-1 [Camptothecin, 20(S)-Camptothecin, reference compound] | 0.00025 µg/mL |  |  |  |  |  |  |  |  |  |  |
| CC[C@@]1(OC(=O)[C@H](NC(=O)[C@@H](Cc2c[nH]cn2)NC(=O)CNC(=O)[C@H](CC(C)C)NC(=O)[C@H]2CCCN2C(=S)Nc2ccc(OC3O[C@H](C)[C@H](O)[C@H](OC)[C@@H]3O)cc2)C(C)C)C(=O)OCc2c1cc1n(c2=O)Cc2cc3ccccc3nc2-1.Cl (some centres unmarked) [Example 2] |  | 70 nM | 150 nM | effected inhibitions of the tumor growth |  |  |  |  |  |  |  |
| CC[C@@]1(OC(=O)[C@H](NC(=O)[C@@H](Cc2c[nH]cn2)NC(=O)[C@@H](CC(C)C)NC(=O)CNC(=O)[C@H](CC(C)C)NC(=O)[C@H]2CCCN2C(=S)Nc2ccc(OC3O[C@H](C)[C@H](O)[C@H](OC)[C@@H]3O)cc2)C(C)C)C(=O)OCc2c1cc1n(c2=O)Cc2cc3ccccc3nc2-1.Cl (stereo partly drawn) [Example 3] (X1-[dP]LG[dL][dH][dV]-X2) |  | 50 nM | 100 nM |  | 150 nM | 19.1% | 1/5 | 0.04 µg/mL | 609 |  |  |
| CC[C@@]1(OC(=O)[C@H](NC(=O)[C@@H](Cc2c[nH]cn2)NC(=O)[C@@H](CC(C)C)NC(=O)CNC(=O)[C@H](CC(C)C)NC(=O)[C@H]2CCCN2C(=O)Nc2ccc(OC3O[C@H](C)[C@H](O)[C@H](OC)[C@@H]3O)cc2)C(C)C)C(=O)OCc2c1cc1n(c2=O)Cc2cc3ccccc3nc2-1.Cl (stereo partly drawn) [Example 4] ({X3-CO}-[dP]LG[dL][dH][dV]-X2) |  | 40 nM | 50 nM |  | 150 nM |  |  |  | 700 |  |  |
| CC[C@@]1(OC(=O)[C@H](NC(=O)[C@@H](CC(N)=O)NC(=O)[C@@H](CC(C)C)NC(=O)CNC(=O)[C@H](CC(C)C)NC(=O)[C@H]2CCCN2C(=S)Nc2ccc(OC3O[C@H](C)[C@H](O)[C@H](OC)[C@@H]3O)cc2)C(C)C)C(=O)OCc2c1cc1n(c2=O)Cc2cc3ccccc3nc2-1 (stereo partly drawn) [Example 5] (X1-[dP]LG[dL][dN][dV]-X2) |  | 60 nM | 80 nM | effected inhibitions of the tumor growth | 300 nM |  |  |  | 166 | 19.1% | 1/5 |
| CC[C@@]1(OC(=O)[C@H](NC(=O)[C@@H](CC(N)=O)NC(=O)[C@@H](CC(C)C)NC(=O)CNC(=O)[C@H](CC(C)C)NC(=O)[C@H]2CCCN2C(=O)Nc2ccc(OC3O[C@H](C)[C@H](O)[C@H](OC)[C@@H]3O)cc2)C(C)C)C(=O)OCc2c1cc1n(c2=O)Cc2cc3ccccc3nc2-1 (stereo partly drawn) [Example 6] ({X3-CO}-[dP]LG[dL][dN][dV]-X2) |  | 50 nM | 60 nM |  | 300 nM |  |  |  | 80 |  |  |
| CC[C@@]1(OC(=O)[C@H](NC(=O)[C@@H](CC(=O)O)NC(=O)[C@@H](CC(C)C)NC(=O)CNC(=O)[C@H](CC(C)C)NC(=O)[C@H]2CCCN2C(=S)Nc2ccc(OC3O[C@H](C)[C@H](O)[C@H](OC)[C@@H]3O)cc2)C(C)C)C(=O)OCc2c1cc1n(c2=O)Cc2cc3ccccc3nc2-1 (stereo partly drawn) [Example 7] (X1-[dP]LG[dL][dD][dV]-X2) |  | 100 nM | 200 nM |  | 600 nM |  |  |  | 9 |  |  |
| CC[C@@]1(OC(=O)[C@H](NC(=O)[C@@H](Cc2c[nH]c3ccccc23)NC(=O)[C@@H](CC(C)C)NC(=O)CNC(=O)[C@H](CC(C)C)NC(=O)[C@H]2CCCN2C(=S)Nc2ccc(OC3O[C@H](C)[C@H](O)[C@H](OC)[C@@H]3O)cc2)C(C)C)C(=O)OCc2c1cc1n(c2=O)Cc2cc3ccccc3nc2-1 (stereo partly drawn) [Example 9] (X1-[dP]LG[dL][dW][dV]-X2) |  | 300 nM | 400 nM |  | 1000 nM |  |  |  | 64 |  |  |
| CC[C@@]1(OC(=O)[C@H](NC(=O)[C@@H](Cc2c[nH]cn2)NC(=O)[C@@H](CC(C)C)NC(=O)CNC(=O)[C@H](CC(C)C)NC(=O)[C@H]2CCCN2C(=S)Nc2ccc(OC3O[C@H](C)[C@H](O)[C@H](OC)[C@@H]3O)cc2)C(C)C)C(=O)OCc2c1cc1n(c2=O)Cc2cc3ccccc3nc2-1.Cl (stereo partly drawn) [Example 12] (X1-[dP]LG[dL][dH][dV]-X2) |  | 100 nM | 150 nM |  | 300 nM |  |  | 0.03 µg/mL |  |  |  |
